Experimental data reported in PubChem BioAssay AID1159611.

Target: Retinoic acid receptor RXR-alpha (Homo sapiens) (UniProt P19793)
Assay: RXRalpha binders by radioligand displacement, dose response, biochemical, [3H]9-cis-retinoic acid (AID 1159611)
Details: RXRalpha [3H]9-cis-retinoic acid displacement binding

Retinoic acid receptor RXR-alpha (Homo sapiens), sequence (P19793 whole entry, looked up): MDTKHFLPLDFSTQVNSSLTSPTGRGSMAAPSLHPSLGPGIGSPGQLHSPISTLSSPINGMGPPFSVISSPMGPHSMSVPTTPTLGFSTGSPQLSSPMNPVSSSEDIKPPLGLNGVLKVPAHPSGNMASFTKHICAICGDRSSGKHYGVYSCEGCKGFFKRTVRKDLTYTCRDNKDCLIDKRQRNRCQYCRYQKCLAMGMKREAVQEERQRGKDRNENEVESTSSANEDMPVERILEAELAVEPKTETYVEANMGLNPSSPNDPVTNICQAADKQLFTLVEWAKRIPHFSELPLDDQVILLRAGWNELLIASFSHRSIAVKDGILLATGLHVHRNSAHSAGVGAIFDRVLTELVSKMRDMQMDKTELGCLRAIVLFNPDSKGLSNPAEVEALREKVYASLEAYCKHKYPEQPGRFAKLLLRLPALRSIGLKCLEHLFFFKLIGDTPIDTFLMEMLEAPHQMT

- IC50: 5.74 µM
Compound: CC1=C[C@H](O)CC(C)(C)[C@H]1/C=C/C(C)=C/C=C/C(C)=C/C=C/C=C(C)/C=C/C=C(C)/C=C/C1=C(C)C[C@@H](O)CC1(C)C
